# Test results published in patent publication US20110294874A1, “DIAGNOSIS AND THERAPY OF ORGAN DYSFUNCTION USING SPHINGANINE-1-PHOSPHATE” (The Trustees of Columbia University in the City of New York, priority 2008, published 2011).
# Tests used:
# [1] = tested on: C57BL/6 mice subjected to liver IR; test: Kidney H&E histology after liver IR; assay type: in vivo, mouse; conditions: vs vehicle-treated controls
# Description: Liver IR-induced AKI in mice shared similar histological changes observed in human AKI associated with liver failure, as observed in H&E slides of kidney sections taken from the mice (see FIG. 3). Multifocal acute tubular injury including individual cell necrosis involving the juxtamedullary proximal tubules of the S3 segment was observed. […] Endothelial apoptosis of peritubular capillaries was also visible in H&E sections as linear arrays of apoptotic bodies corresponding to the interstitial capillary lining endothelium. […] The number of glomeruli with detectable juxtaglomerular apparatus and the number of cells per juxtaglomerular apparatus were both increased after liver IR, indicating hyperplasia of the juxtaglomerular apparatus. […] Liver IR produced large necrotic areas of liver tissue. The average percentage of necrotic areas in liver samples taken from liver IR mice were 92%±2% (n=6), while no necrosis was found in sham-operated mice. Livers were also analyzed for the degree of hepatocellular damage.
# [2] = tested on: C57BL/6 mice subjected to liver IR; test: Apoptosis (TUNEL, DNA laddering, caspase 3) and F-actin (phalloidin) in liver and kidney after liver IR; assay type: in vivo, mouse
# Description: Mice were anesthetized with intraperitoneal pentobarbital (50 mg/kg or to effect). Mice were placed under a heating lamp and on a 37° C. heating pad. After a midline laparotomy and intraperitoneal application of 20 U heparin, left lateral and median lobes of the liver were subjected to ischemia with a microaneurysm clip occluding the hepatic triad above the bifurcation. This method of partial hepatic ischemia results in a segmental (˜70%) hepatic ischemia but spares the right lobe of the liver and prevents mesenteric venous congestion by allowing portal decompression throughout the right and caudate lobes of the liver. The liver was then repositioned in the peritoneal cavity in its original location for 60 minutes. The liver was kept moist with gauze soaked in 0.9% normal saline. The body temperature was monitored by an infrared temperature sensor (Linear Laboratories, Fremont, Calif.) every 10 min. and maintained at 37° C. using a heating lamp and a heating pad. After 60 minutes, the liver was reperfused and the wound closed. Sham-operated mice were subjected to laparotomy and identical liver manipulations without vascular occlusion. Two, 4 and 24 hr after reperfusion, plasma was collected for the measurement of alanine aminotransferase (ALT), a common indicator of liver damage, as well as creatinine (Cr) a common indicator of kidney damage. The liver tissue subjected to IR was collected to measure percent liver necrosis (2, 4 and 24 hr after IR), neutrophil infiltration (with immunohistochemistry, 4 and 24 hr after IR), apoptosis (with terminal deoxynucleotidyl transferase-mediated dUTP nick end labeling staining, caspase 3 immunoblotting and DNA laddering, 24 hr after IR), and inflammation by RT-PCR for pro-inflammatory mRNAs (4 hr after IR).
# Apoptosis was detected in both liver and kidney taken from mice subjected to liver IR, through TUNEL staining, DNA laddering and caspase 3 fragmentation.
# [3] = tested on: human renal glomerular endothelial cells (HRGEC); test: HRGEC apoptosis, kinase phosphorylation, HSP27 and F-actin; assay type: cell-based
# Description: IHUVEC—immortalized human umbilical vein endothelial cells (ATCC, P.O. Box 1549 Manassas, Va. 20108) or HRGEC—human renal glomerular endothelial cells (ScienCell Research Laboratories, 6076 Corte Del Cedro Carlsbad, Calif. 92011) were cultured within a humidified atmosphere of 5% CO2 in air and grown to confluence. When confluent, the cells were trypsinized and seeded onto 0.45 μm pore size polycarbonate filters at the base of inserts of 6.5 mm diameter Transwell chambers and cultured until confluence.
# In further experiments, apoptosis was induced in human renal endothelial (HRGEC) cells with either TNF-α plus cycloheximide or H2O2, with or without Sg1P treatment. In both cases, the addition of Sg1P (1 uM) reduced PARP and caspase 3 fragmentations, which are indices of apoptosis (N=2, data not shown).
# [4] = tested on: SK1 KO mice subjected to liver IR; test: Liver IR in SK1 KO mice: plasma ALT and creatinine; assay type: in vivo, mouse; conditions: SK1KO, hepatic IR 24 h
# Description: (§1) The effects of administering Sg1P (0.1 mg/kg i.v. and 0.2 mg/kg s.c.) on liver and renal injury were also determined in the KO mice and are also shown in Tables 9 and 10 below.
# [5] = tested on: SK2 KO mice subjected to liver IR; test: Liver IR in SK2 KO mice: plasma ALT and creatinine; assay type: in vivo, mouse; conditions: SK2KO, hepatic IR 24 h
# Description: as §1
# [6] = tested on: C57BL/6 mice subjected to liver IR; test: Survival of mice after liver IR; assay type: in vivo, mouse; conditions: 24 hours post liver IR
# Description: Without Sg1P administration, 20% of mice subjected to liver IR stayed alive after 1 week. With Sg1P treatment, 50% of mice subjected to liver IR that received Sg1P remained alive after the same time period.
# ERK/MAPK, Akt, HSP27 = test: Immunoblotting/RT-PCR of liver and kidney of mice injected with Sg1P; assay type: in vivo, mouse; conditions: i.v. injection
# Description: Mice were injected with sphinganine 1-phophate intravenously and their kidney and liver tissues were extracted at 15 minutes after injection (for immunoblotting of phosphorylated proteins) or at 5 hours after injection (for RT-PCR). […] HSP27 is a known F-actin stabilizing and anti-apoptotic protein.
# [7] = 0.1 mg/kg i.v. and 0.2 mg/kg s.c.
smiles,measurement,setting,value
"CCCCCCCCCCCCCCC[C@@H](O)[C@@H](N)COP(=O)(O)O [Sg1P, sphinganine-1-phosphate]",Indications of AKI in kidney H&E slides,[1],significantly less indications of AKI
same,Caspase 3 fragmentation in liver and kidney,[2],significantly reduced
same,"TUNEL staining, DNA laddering in liver and kidney",[2],significantly reduced
same,F-actin structure in liver and kidney (phalloidin),[2]; vs vehicle,better-preserved F-actin structure
same,PARP and caspase 3 fragmentations,"[3]; 1 uM, apoptosis induced with TNF-α plus cycloheximide or H2O2",reduced
same,Phalloidin staining (F-actin),"[3]; HRGEC treated with TNF-α, co-administration",restored the phalloidin staining
same,HSP27 phosphorylation and total HSP27 expression,"[3]; HRGEC, 1 μM","induced the phosphorylation of HSP27, as well as increased expression of total HSP27"
same,Phosphorylation of ERK and Akt,"[3]; HRGEC, 1 μM",resulted in the phosphorylation
same,Creatinine (mean),[4],0.709 mg/dL
same,ALT (mean),[4]; [7],9602.01 U/L
same,Creatinine (mean),[5],0.679 mg/dL
same,ALT (mean),[5]; [7],7575.28 U/L
same,Survival rate,[6],~90%
same,"Phosphorylation of ERK/MAPK, Akt and HSP27 in liver and kidney","ERK/MAPK, Akt, HSP27; tissues 15 minutes after injection",resulted in phosphorylation
same,HSP27 mRNA expression in liver and kidney,"ERK/MAPK, Akt, HSP27; tissues 5 hours after injection",induced
